Measured values as given in the supplement of paper PMC10307832.

Legend:
Experiment in all cases: relative viability (nuclei count vs DMSO), 5 days (fraction); higher = more cells survive
NCI-H2023 = test system: NCI-H2023
In short: (§1)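 Lung cancer cell lines were seeded in 1536-well plates and dosed by pin tool the next day, with either a single drug or a fixed anchor-drug dose combined with five library-drug doses (not always all listed) spaced in √10 steps. Five days later, one step fixed the cells and stained their nuclei (final 0.05% Triton X-100, 1% formaldehyde, 1 ug/ml Hoechst), and nuclei were counted on 4× images. Relative viability is the nuclei count in treated wells divided by the count in vehicle wells, and each value is the median of duplicate plates.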

NCI-H2085 = test system: NCI-H2085
In short: as §1

NCI-H2126 = test system: NCI-H2126
In short: as §1

NCI-H2342 = test system: NCI-H2342
In short: as §1

NCI-H2347 = test system: NCI-H2347
In short: as §1

NCI-H322M = test system: NCI-H322M
In short: as §1

NCI-H647 = test system: NCI-H647
In short: as §1

NCI-H661 = test system: NCI-H661
In short: as §1

NCI-H727 = test system: NCI-H727
In short: as §1

PC-14 = test system: PC-14
In short: as §1

SK-LU-1 = test system: SK-LU-1
In short: as §1

SW 1573 = test system: SW 1573
In short: as §1

In the case of CC1(C)CCC(c2ccc(Cl)cc2)=C(CN2CCN(c3ccc(C(=O)NS(=O)(=O)c4ccc(N[C@H](CCN5CCOCC5)CSc5ccccc5)c(S(=O)(=O)C(F)(F)F)c4)cc3)CC2)C1 [Navitoclax] + Cc1nc(Nc2ncc(C(=O)Nc3c(C)cccc3Cl)s2)cc(N2CCN(CCO)CC2)n1 [Dasatinib] (partner 0.075 µM), the relative viability (NCI-H2023; first compound 0.01581 µM) is reported as 0.594, the relative viability (NCI-H2023; first compound 0.05 µM) is reported as 0.621 and the relative viability (NCI-H2023; first compound 0.1581 µM) is reported as 0.648. The relative viability (NCI-H2023; first compound 0.5 µM) was 0.561, the relative viability (NCI-H2085; first compound 0.005 µM) was 0.234 and the relative viability (NCI-H2085; first compound 0.01581 µM) was 0.234. The relative viability (NCI-H2085; first compound 0.05 µM) was 0.199, the relative viability (NCI-H2085; first compound 0.1581 µM) was 0.228 and the relative viability (NCI-H2085; first compound 0.5 µM) was 0.315. The relative viability (NCI-H2126; first compound 0.005 µM) was 0.601, the relative viability (NCI-H2126; first compound 0.01581 µM) was 0.709 and the relative viability (NCI-H2126; first compound 0.05 µM) was 0.644. It also gave a relative viability (NCI-H2126; first compound 0.1581 µM) of 0.509, a relative viability (NCI-H2126; first compound 0.5 µM) of 0.569 and a relative viability (NCI-H2342; first compound 0.005 µM) of 0.32. For the same compound, the relative viability (NCI-H2342; first compound 0.01581 µM) was 0.309, the relative viability (NCI-H2342; first compound 0.05 µM) was 0.27 and the relative viability (NCI-H2342; first compound 0.1581 µM) was 0.278. It also gave a relative viability (NCI-H2342; first compound 0.5 µM) of 0.31, a relative viability (NCI-H2347; first compound 0.005 µM) of 0.328 and a relative viability (NCI-H2347; first compound 0.01581 µM) of 1. For the same compound, the relative viability (NCI-H2347; first compound 0.1581 µM) was 0.262, the relative viability (NCI-H2347; first compound 0.5 µM) was 0.188 and the relative viability (NCI-H322M; first compound 0.005 µM) was 0.263. The relative viability (NCI-H322M; first compound 0.01581 µM) was 0.24, the relative viability (NCI-H322M; first compound 0.05 µM) was 0.252 and the relative viability (NCI-H322M; first compound 0.1581 µM) was 0.271. It also gave a relative viability (NCI-H322M; first compound 0.5 µM) of 0.324, a relative viability (NCI-H647; first compound 0.005 µM) of 0.15 and a relative viability (NCI-H647; first compound 0.01581 µM) of 0.192. For the same compound, the relative viability (NCI-H647; first compound 0.05 µM) was 0.173, the relative viability (NCI-H647; first compound 0.1581 µM) was 0.17 and the relative viability (NCI-H647; first compound 0.5 µM) was 0.315. The relative viability (NCI-H661; first compound 0.005 µM) was 0.621, the relative viability (NCI-H661; first compound 0.01581 µM) was 1.11 and the relative viability (NCI-H661; first compound 0.05 µM) was 0.901. For the same compound, the relative viability (NCI-H661; first compound 0.1581 µM) was 0.933, the relative viability (NCI-H661; first compound 0.5 µM) was 0.926 and the relative viability (NCI-H727; first compound 0.01581 µM) was 0.364. For the same compound, the relative viability (NCI-H727; first compound 0.1581 µM) was 0.365, the relative viability (NCI-H727; first compound 0.5 µM) was 0.347 and the relative viability (PC-14; first compound 0.005 µM) was 0.255. For the same compound, the relative viability (PC-14; first compound 0.01581 µM) was 0.317, the relative viability (PC-14; first compound 0.05 µM) was 0.228 and the relative viability (PC-14; first compound 0.1581 µM) was 0.284. The relative viability (PC-14; first compound 0.5 µM) was 0.215, the relative viability (SK-LU-1; first compound 0.005 µM) was 0.182 and the relative viability (SK-LU-1; first compound 0.01581 µM) was 0.169. It also gave a relative viability (SK-LU-1; first compound 0.05 µM) of 0.193, a relative viability (SK-LU-1; first compound 0.1581 µM) of 0.203 and a relative viability (SK-LU-1; first compound 0.5 µM) of 0.0932. For the same compound, the relative viability (SW 1573; first compound 0.005 µM) was 0.522, the relative viability (SW 1573; first compound 0.01581 µM) was 0.699 and the relative viability (SW 1573; first compound 0.05 µM) was 0.637. For the same compound, the relative viability (SW 1573; first compound 0.1581 µM) was 0.482 and the relative viability (SW 1573; first compound 0.5 µM) was 0.459.
